In PubChem BioAssay (NCI) one finds TGI and GI50 data, which are given here for 10 compounds.

Some test systems named below: UACC-62 melanoma; M14 melanoma; SK-OV-3 ovarian; NCI-H460 lung; NCI-H23 lung; SNB-75 CNS; PC-3 prostate; U251 CNS; SF-295 CNS; SK-MEL-28 melanoma.
Common to all, as to experiment: NCI-60 cell line screen, 48 h

SMILES strings stand for the structures.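 Cultured in 96-well plates, cells were exposed to test compound for 48 hours across five concentrations. GI50 marks 50% less growth. TGI marks complete inhibition of growth.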

For the compound `CN(CCO)CCC1COc2ccccc2O1` (stereo not given), the TGI in the assay on UACC-62 melanoma, in the assay with M14 melanoma, in the assay with SK-OV-3 ovarian, in the assay on NCI-H460 lung, in the assay with NCI-H23 lung and in the assay on SNB-75 CNS was above 10 µM in each case. The TGI with PC-3 prostate, with U251 CNS, with SF-295 CNS and with SK-MEL-28 melanoma was above 10 µM in each case.
On to `N#C[S-].[Ce+3].c1ccc(-c2ccccn2)nc1.c1ccc(-c2ccccn2)nc1.c1ccc(-c2ccccn2)nc1`, for which the GI50 with UACC-62 melanoma was 20.6 µM; in the assay with M14 melanoma, 6.24 µM; with SK-OV-3 ovarian it was 27 µM; in the assay on NCI-H460 lung it was 13.1 µM; in the assay on NCI-H23 lung it was 26.9 µM; in the assay with SNB-75 CNS, 15.2 µM. In addition, the values for the GI50 in the assay on U251 CNS, in the assay on SF-295 CNS and in the assay on SK-MEL-28 melanoma were 13.3 µM, 4.72 µM and 15.3 µM, respectively. In addition, the TGI was 55.2 µM with UACC-62 melanoma; 24.7 µM in the assay with M14 melanoma; 60.7 µM in the assay on SK-OV-3 ovarian; above 100 µM in the assay on NCI-H460 lung; 97.3 µM with NCI-H23 lung; above 100 µM with SNB-75 CNS. Also, the TGI in the assay with U251 CNS was above 100 µM; in the assay on SF-295 CNS, 49 µM; in the assay with SK-MEL-28 melanoma, above 100 µM.
Take `COC1=CC(c2ccc[nH]2)=N/C1=C\c1[nH]c(C)c(CC(=O)NCc2ccccc2)c1C`: the GI50 was 1.87 µM in the assay on SK-OV-3 ovarian; 1.51 µM in the assay with SNB-75 CNS; 1.1 µM in the assay on PC-3 prostate; 1.23 µM with U251 CNS; 1.47 µM in the assay with SF-295 CNS. For the same compound, the TGI in the assay with SK-OV-3 ovarian amounted to 3.39 µM; with SNB-75 CNS, 2.89 µM; in the assay with PC-3 prostate, 2.6 µM; in the assay on U251 CNS, 2.49 µM; with SF-295 CNS, 2.89 µM.
In the case of `COc1nc2ccc(Cl)c(C(O)c3ccccc3)c2nc1OC` (stereo not given), the TGI with UACC-62 melanoma is 96.3 µM; in the assay on M14 melanoma it was 38.8 µM; in the assay with NCI-H460 lung, above 100 µM; with NCI-H23 lung it was 61.2 µM; with SNB-75 CNS it was above 100 µM; in the assay on PC-3 prostate it was above 100 µM. Also, the TGI was 88 µM in the assay on U251 CNS, 44.8 µM with SF-295 CNS and above 100 µM with SK-MEL-28 melanoma.
Take `N/C(=C\c1ccc(/C=C(\NC(=O)c2ccccc2)c2nc3c([nH]2)C(=O)c2ccccc2C3=O)cc1)c1nc2c([nH]1)C(=O)c1ccccc1C2=O`: the TGI in the assay with UACC-62 melanoma came out at 27.8 µM; in the assay on M14 melanoma, 30.4 µM; in the assay on SK-OV-3 ovarian, 48.8 µM; in the assay on NCI-H460 lung, 36.4 µM; with NCI-H23 lung, 32.8 µM; in the assay on SNB-75 CNS, 18.8 µM. Also, the TGI in the assay on U251 CNS is 33.6 µM; in the assay with SF-295 CNS, 30.9 µM; in the assay on SK-MEL-28 melanoma, 31.3 µM.
Regarding `COC(Cc1cc(C(O)(c2ccc(C(C)(C)C)cc2)c2cc(CC(OC)(c3cc(C(OC)(c4ccc(C(C)(C)C)cc4)c4ccc(C(C)(C)C)cc4)c(C)cc3C)c3cc(C(OC)(c4ccc(C(C)(C)C)cc4)c4ccc(C(C)(C)C)cc4)c(C)cc3C)c(C)cc2C)c(C)cc1C)(c1cc(C(OC)(c2ccc(C(C)(C)C)cc2)c2ccc(C(C)(C)C)cc2)c(C)cc1C)c1cc(C(OC)(c2ccc(C(C)(C)C)cc2)c2ccc(C(C)(C)C)cc2)c(C)cc1C`, the TGI in the assay with UACC-62 melanoma, in the assay on M14 melanoma, in the assay with SK-OV-3 ovarian, in the assay on NCI-H460 lung, with NCI-H23 lung and in the assay on SNB-75 CNS was above 75 µM each time. Further, the TGI with PC-3 prostate, with U251 CNS, in the assay on SF-295 CNS and in the assay on SK-MEL-28 melanoma was above 75 µM in each case.
For `N#CC1(C#N)C(=O)c2ccncc2C1=O`, the TGI in the assay on UACC-62 melanoma, with M14 melanoma, in the assay with SK-OV-3 ovarian, in the assay with NCI-H460 lung, in the assay on NCI-H23 lung and in the assay with SNB-75 CNS was above 100 µM in each case. The TGI in the assay with PC-3 prostate, in the assay on U251 CNS, in the assay on SF-295 CNS and with SK-MEL-28 melanoma was above 100 µM in each case.
For the compound `COc1cc(/C=C2\C(=O)Nc3ccc(Cl)cc32)cc(OC)c1OC`, the GI50 in the assay on UACC-62 melanoma was 16.3 µM; in the assay on SK-OV-3 ovarian, 13.4 µM; in the assay with NCI-H460 lung, 24.2 µM; with NCI-H23 lung it was 12.9 µM; with SNB-75 CNS it was 7 µM; in the assay with PC-3 prostate, 2.93 µM. The GI50 was 13.1 µM in the assay on U251 CNS, 78.2 µM in the assay on SF-295 CNS and above 100 µM in the assay with SK-MEL-28 melanoma. The TGI in the assay on UACC-62 melanoma is above 100 µM; in the assay with SK-OV-3 ovarian, 33.8 µM; in the assay on NCI-H460 lung, above 100 µM; with NCI-H23 lung it was 39.2 µM; with SNB-75 CNS it was 21.8 µM; in the assay with PC-3 prostate it was above 100 µM. Further, the figures for the TGI with U251 CNS, with SF-295 CNS and in the assay on SK-MEL-28 melanoma were 32.4 µM, above 100 µM and above 100 µM, respectively.
For the compound `CCCC[n+]1ccn(-c2nc3ccccc3n2C)c1`, the TGI in the assay with UACC-62 melanoma, in the assay with M14 melanoma, in the assay on SK-OV-3 ovarian, in the assay with NCI-H460 lung, with NCI-H23 lung and in the assay with SNB-75 CNS was above 100 µM in each case. Besides, the TGI with U251 CNS and in the assay with SF-295 CNS was above 100 µM throughout.
Regarding `C/C=C(\C)C(=O)OC1C2C(C)=CC(=O)C(O)C2(C)C2C3(O)OCC24C1OC(=O)C(OC(C)=O)C4C(C)C3O` (stereo not given), the TGI worked out at 0.0555 µM in the assay with UACC-62 melanoma; 1.12 µM with SK-OV-3 ovarian; 0.038 µM in the assay with NCI-H460 lung; 0.266 µM in the assay with NCI-H23 lung; 0.055 µM in the assay on SNB-75 CNS; 0.0407 µM in the assay on U251 CNS. The TGI in the assay on SF-295 CNS is 0.0959 µM; in the assay on SK-MEL-28 melanoma, 0.0397 µM.
